In patent US11739194B2, “Glycerol-silicone elastomers as active matrices with controllable release profiles” (Danmarks Tekniske Universitet, priority 2017, dated 2023):

Columns and labels:
[1] = Erythrosine B and hydroquinone release from dual compartment glycerol-silicone elastomer immersed in deionized water (UV-vis); format: physicochemical; conditions: for release kinetics (order): dual compartment elastomer, 80 phr total glycerol concentration
Experimental: For the present experiment two solutions were prepared—glycerol-erythrosine B and glycerol-hydroquinone solutions. Glycerol-erythrosine B solution contained 4 g of glycerol and 0.04 g of erythrosine B. Glycerol-hydroquinone solution contained 4 g of glycerol and 0.2 g of hydroquinone. Single emulsions were prepared as detailed above and were subsequently used to prepare two distinct glycerol-in-silicone emulsions. The glycerol-erythrosine B and glycerol-hydroquinone solutions were each added to 5 g of a silicone prepolymer in respective, separate containers. In this case, Sylgard 184 silicone kit from Dow Corning was applied. The respective mixtures were subsequently speed-mixed for 2 to 5 minutes using a dual asymmetric centrifuge DAC SpeedMixer. To prepare the dual compartment silicone elastomers, the two glycerol-in-silicone emulsions were combined. Desired amounts of each of the emulsions were placed into a speed-mixing cup. The composition was subsequently speed-mixed at low mixing rates (typically between from 500 to 1000 rpm) for around 1 minute in order to uniformly distribute both types of droplets within the silicone matrix. Stable emulsions can be mixed with any given speed. […] After combining and mixing both single emulsions a dual compartment emulsion was obtained. The emulsion contained 10 g of silicone, 4.04 g of glycerol droplets containing erythrosine B and 4.2 g of glycerol droplets containing hydroquinone. The total mass of the emulsion was 18.24 g. In a final step, the elastomer emulsions were cured at 80° C. for 1 hour. Long exposure to high temperatures results in glycerol evaporation therefore prolonged high temperature curing should be avoided. […] Release profiles of erythrosine and hydroquinone from the glycerol-silicone elastomers were determined by immersing composites in deionized water. The progress of release of erythrosine B and hydroquinone was monitored by measuring changes in concentration of both compounds in the aqueous environment. […] Each release profile curve represents an average of three separate experiments. Films with thickness of 0.3 mm were investigated. Such thin films tend to self-adhere therefore they were mounted onto custom-made frames (FIG. 4) to maintain a constant exposed surface area and placed in beakers equipped with magnetic stirring.

[2] = Hydroquinone release from single compartment glycerol-silicone elastomers immersed in deionized water (UV-vis); format: physicochemical; conditions: hydroquinone alone (single glycerol phase), 80 phr total glycerol concentration
Experimental: The example provided leads to a 1.42 g batch of material that may readily be scaled up or down. Using the described method batches from between 1 g and 80 g were prepared. Hydroquinone (HQ, 0.02 g, 5 wt. %) was dissolved in glycerol (0.4 g) at 50° C. using magnetic stirring until a clear solution was obtained (typically around 1-2 hours). […] Sample nomenclature uses the pattern GX HQY S184 Z, where G and X correspond to glycerol and concentration of glycerol in phr (weight parts per hundred weight parts of silicone elastomer), HQ and Y correspond to hydroquinone and concentration of hydroquinone dissolved in glycerol (expressed as weight percentage of HQ in glycerol) and S184 corresponds to applied silicone composition, respectively. […]
Release profiles of HQ from the glycerol-silicone elastomers were determined by immersing composites containing various amounts of glycerol with 5 wt % of HQ in deionized water. The progress of hydroquinone release was monitored by measuring changes in concentration of hydroquinone in the aqueous environment. A UV-vis spectrophotometer POLARstar Omega microplate reader by BMG LabTech was used for the tests, and outcomes were compared against a calibration curve for hydroquinone/water solutions. […]

time after which the entire incorporated amount was released ([1]; 0.3 mm thick dual compartment elastomer, 40 phr glycerol with erythrosine B + 40 phr glycerol with hydroquinone)	share of the total amount released with zero-order kinetics ([1]; 0.3 mm thick dual compartment elastomer, 80 phr glycerol in total)	release kinetics (order) [2]	amount released ([1]; after 28 hours, 0.3 mm thick dual compartment elastomer, 80 phr glycerol in total)	Compound	release kinetics (order) [1]
around 6 hours	~80%	near-zero order release kinetics		Oc1ccc(O)cc1 [hydroquinone]	zero-order release kinetics
			15%	erythrosine B	zero-order kinetics throughout the whole experiment
